Like-named read-outs stand apart in the source and are kept apart here.
Assays:
[1] = test system: RSV mRNA transcription and genome replication; test: RSV minigenome system; type: cell-based, respiratory syncytial virus
[2] = test system: RSV-A and RSV-B laboratory strains; test: RT-qPCR assay, RSV laboratory strains across primate cell lines; type: cell-based; conditions: human respiratory syncytial virus, in Primates, read-out: EC50 values, reduction in viral load by RT-qPCR (range over strains and cells)
Procedure: The activity of EDP-938 against both RSV-A and RSV-B was evaluated in vitro against multiple laboratory strains commonly used for antiviral screens in HEp-2 cells, human adenocarcinomic alveolar basal epithelial cells (A549), monkey kidney-derived cells (Vero), and Baby Hamster Kidney cells (BHK). Serial dilutions of the compound were added to cells infected with RSV-A at a MOI of 0.1 or RSV-B at an MOI of 0.5 and treated for 5 or 6 days, respectively.
(§1) HEp-2, Vero, and BHK were seeded at 8,000 cells per well (cpw) in growth medium (Dulbecco’s Modified Eagle Medium (DMEM) with 1% GlutaMAX, 1% Penicillin/Streptomycin (P/S), 1% Non-Essential Amino Acids (NEAA), 10% Fetal Bovine Serum (FBS)) or (Minimum Essential Medium (MEM) with 10% FBS, 1% NEAA, 1% P/S) or (Eagle’s Minimum Essential Medium with L-Glutamine, with 10% FBS, 1% P/S) respectively. A549 seeded at 3,000 cpw in F-12K Kaighn’s Modification nutrient mixture with 10% FBS, 1% NEAA, 1% P/S. Cells seeded at time of infection in 96-well plates, final well volume 100μL. Compounds suspended in DMSO, serially diluted and added to wells at 0.5% final DMSO concentration. […] Cytopathic effect (CPE) determined using ATPlite (Perkin Elmer) measured with Envision luminometer. […] All EC50s were calculated using the XLFit four-parameter logistic model 200 in Microsoft Excel.

RSV-B clinical isolates [3] = test: RSV Virospot reduction assay (ViroClinics), RSV-B isolates from the Netherlands; type: cell-based; conditions: human respiratory syncytial virus, 10 RSV-B strains from the Netherlands
Procedure: To further expand testing against clinical isolates, the compound was assayed against a panel of 10 RSV-A and 10 RSV-B strains mainly isolated from children of age 2–200 weeks in the Netherlands.
RSV clinical isolates were obtained from Baylor University and Medical College of Wisconsin. MOI of 0.1 used for all clinical isolates except RSV-A 629-9-2 (0.01) and RSV-B 629-24/2007 (0.0044) due to low titer. Virospot reduction assay was run by ViroClinics (Rotterdam, the Netherlands) against 20 additional RSV clinical isolates.

[4] = test system: recombinant RSV A2-line19F, N protein mutants
RSV-B clinical isolates [5] = test: Susceptibility of USA-derived RSV-B clinical isolates; type: cell-based; conditions: human respiratory syncytial virus
Procedure: Serial dilutions of the compound were added to cells infected with RSV-A isolates at an MOI of 0.1 (except for isolate 629-9-2 at an MOI of 0.01) or RSV-B isolates at an MOI of 0.5 (expect for isolate 629-24/2007 at an MOI of 0.0044) and were treated for 5 or 6 days, respectively. […] This is consistent with the fact that the viral N protein, which is the putative target of the antiviral effect of EDP-938, is the most conserved RSV protein [11].
as §1, with “Excel. […]” for “Excel.”

RSV-A Long = test: RT-qPCR assay, RSV-A Long in BHK cells; type: cell-based; conditions: human respiratory syncytial virus
RSV-A2 = test: RT-qPCR assay, RSV-A2 in Vero cells; type: cell-based; conditions: human respiratory syncytial virus
Procedure: HEp-2, Vero, and BHK were seeded at 8,000 cells per well (cpw) in growth medium (Dulbecco’s Modified Eagle Medium (DMEM) with 1% GlutaMAX, 1% Penicillin/Streptomycin (P/S), 1% Non-Essential Amino Acids (NEAA), 10% Fetal Bovine Serum (FBS)) or (Minimum Essential Medium (MEM) with 10% FBS, 1% NEAA, 1% P/S) or (Eagle’s Minimum Essential Medium with L-Glutamine, with 10% FBS, 1% P/S) respectively. A549 seeded at 3,000 cpw in F-12K Kaighn’s Modification nutrient mixture with 10% FBS, 1% NEAA, 1% P/S. Cells seeded at time of infection in 96-well plates, final well volume 100μL. Compounds suspended in DMSO, serially diluted and added to wells at 0.5% final DMSO concentration. Viral stocks stabilized with 25% sucrose, previously titered using plaque assay, were added at desired MOI. Sucrose added to cells-only control wells to match percent added with virus. Unless otherwise noted, RSV-A strains were tested at 0.1 MOI and incubated for 5 days in a 37°C, 5% CO2 humidified incubator, and RSV-B at 0.5 MOI for 6 days. Cytopathic effect (CPE) determined using ATPlite (Perkin Elmer) measured with Envision luminometer. For RT-qPCR, RNA was extracted from whole well using Ambion RNAqueous-96 Automated Kit, and RT-qPCR run using Applied Biosystems TaqMan RNA-to-CT 1-Step Kit. […] All EC50s were calculated using the XLFit four-parameter logistic model 200 in Microsoft Excel.

RSV-B VR-955 = test: RT-qPCR assay, RSV-B VR-955 in primary HBECs; type: cell-based; conditions: human respiratory syncytial virus, primary HBEC
RSV = test: Single-round synchronized infection time-of-addition, RT-qPCR endpoint; type: cell-based, respiratory syncytial virus; conditions: HEp-2; MOI 3; cold-synchronized; 2x or 20x EC50; added 0-8 hpi; RT-qPCR at 24 hpi
Procedure: In order to help determine which step of the viral life cycle EDP-938 blocks multiple in vitro time-of-addition studies were performed. In the first study, EDP-938 was administered to cells infected with RSV-A Long at a MOI of 0.1 at 2 hours pre-infection (-2) or 2, 6, or 24 hours post-infection (hpi), and viral CPE evaluated 5 days later. […] A second time-of-addition study explored the ability of EDP-938 to protect not just a population experiencing a spreading infection, but individual cells already infected with RSV. Using a MOI of 3, which infects approximately 95% of all cells, virus was cold-adsorbed to the cells for 1 hour to synchronize infection before transfer to 37°C to induce fusion (marking the 0 hpi time point). Compound was added at times indicated and a 24 hpi RT-qPCR endpoint was employed to constrain viral replication cycle to a single complete cycle.
For single round infection synchronized infection 25,000 HEp-2 cpw seeded 1-day pre-infection. Plates brought to 4°C, viral infection at 3 MOI calculated for 30,000 cpw incubated at 4°C 1hr. Compound added to 0h plate and plates moved to 37°C. Compound added at 2h, 4h, 6h, and 8h post-incubation (when plates moved to 37°C) to appropriate plates. 24 hpi viral copies measured with RT-qPCR as described above.

## O=C1Nc2ccccc2C(c2ccccc2)=N[C@@H]1Nc1nnc(-c2ncc(C(F)(F)F)cc2N2CCOCC2)o1 [EDP-938]
[1]
  effect on mRNA transcription or genome replication: had no effect
[2]
  EC50: 54 to 110 nM
RSV-B clinical isolates [3]
  EC50: 51 nM
[4]; recombinant RSV N K107N
  EC50 Fold Change vs. WT: 1.2 fold
[4]; recombinant RSV N K136R
  EC50 Fold Change vs. WT: 2.7 fold
[4]; recombinant RSV N L139I
  EC50 Fold Change vs. WT: 7.2 fold
[4]; recombinant RSV N M109I
  EC50 Fold Change vs. WT: 1.6 fold
[4]; recombinant RSV N M109K
  EC50 Fold Change vs. WT: 26.9 fold
[4]; recombinant RSV N M109T
  EC50 Fold Change vs. WT: 5.4 fold
[4]; recombinant RSV N N105D
  EC50 Fold Change vs. WT: 1.3 fold
[4]; recombinant RSV N S134T
  EC50 Fold Change vs. WT: 2.2 fold
[4]; recombinant RSV N V90A
  EC50 Fold Change vs. WT: 1.0 fold
[4]; recombinant RSV Wild-type (WT)
  EC50 Fold Change vs. WT: 1.0 fold
RSV-B clinical isolates [5]
  EC50: 121 nM
RSV-A Long
  EC50: 16800 nM
RSV-A2
  EC50: 91 nM
  EC90: 101 ± 1.7 nM
RSV-B VR-955; 168 h, RSV-B VR-955 MOI 0.1, 7 days
  EC50: 64 ± 30 nM
RSV-B VR-955; RSV-B VR-955
  EC90: 74 ± 33 nM
RSV
  inhibition of viral RNA production by time of addition: inhibited RNA production at all time points up to 8 hpi
